The structures appear in SMILES notation. Converted amounts (≈) assume the structure as drawn.

Conditions in the first series: not given
`CCN1CCCC1=O` gave a logP of -0.04.

`CN(CCN)S(=O)(=O)c1ccc(C(C)(C)[N+](=O)[O-])c([N+](=O)[O-])c1`: the logP came to 0.65.

With `N[C@@H]1[C@H]2CN(c3nc4c(cc3F)c(=O)c(C(=O)O)cn4-c3ccc(F)cc3F)C[C@@H]12`, the logP came to 0.31.

In the case of `COc1ccc2[nH]c3c4ccc(Cl)cc4ncc3c2c1`, the logP is 4.49.

For `CC(C)(C#N)/N=N/C(C)(C)C#N`, the logP came out at 1.1.

In turn, `CCCCC(OC(Cc1ccccc1)C(=O)N1CCC(OCOC)CC1)C(=O)NC(CC1CCCCC1)C(O)CC(C(=O)NCCNc1noc(N)n1)C(C)C` (stereo unspecified) displayed a lipophilicity (logP) of 4.5.

`COc1c(O)cc(C)c(O)c1OC`: the logP was determined as 1.05.

The molecule `Clc1cc2c(Cl)cccc2c(Cl)c1Cl` displayed a logP of 5.77.

With `CC(C)c1ccc2c(c1)CC[C@H]1[C@](C)(C(=O)O)CCC[C@]21C`, the logP worked out at 4.8 and the solubility was determined as 0.022 mM (≈ 0.0066 mg/mL).

In turn, `CC(=O)OCN1C(=O)C2CC=CCC2C1=O` (stereo unspecified) gave a logP of 0.97.

For the molecule `Clc1ccc(Nc2cc3nc4ccccc4n(-c4ccc(Cl)cc4)c-3cc2=NCCCN2CCCC2)cc1`, the logP amounted to 7.17.

As to `ClC1=C(Cl)C2(Cl)C3CC=CC3C1(Cl)C2(Cl)Cl` (stereo unspecified), the logP came to 5.57.

`CCCCC(OC(Cc1ccccc1)C(=O)N1CCC(OCOC)CC1)C(=O)NC(CC1CCCCC1)C(O)CC(C(=O)NCCNc1n[nH]c(N)n1)C(C)C` (stereo unspecified): the logP came out at 4.

Regarding `CN(C)c1ccc(C=NNC(=N)N)cc1`, the logP is 0.28.

The same series, now with this note: 20 °C.
Molecule `CCCCOCC1CO1` (stereo unspecified) showed a solubility of 154 mM (≈ 20 mg/mL).

Molecule `CNC(=N)N` showed a solubility of 24.4 mM (≈ 1.78 mg/mL).

In the case of `CCC(CC)C(=O)O`, the solubility stood at 155 mM (≈ 18 mg/mL). This solubility is about 6.4-fold higher than that of the molecule before.

Consider `CCN(C(=O)n1nnn(-c2ccccc2Cl)c1=O)C1CCCCC1`, for which the solubility is 0.00658 mM (≈ 0.0023 mg/mL).

Regarding `CC(C)OC(=O)c1cc(-c2nn(C)c(C(F)(F)F)c2Br)c(F)cc1Cl`, the solubility is 0.000119 mM (≈ 5.3e-05 mg/mL).

The molecule `CCC(CO)[N+](=O)[O-]` (stereo unspecified) yielded a solubility of 453 mM (≈ 54 mg/mL). In other words, the millimolar range.

`CCOS(=O)(=O)OCC`: the solubility was determined as 45.4 mM (≈ 7 mg/mL). This solubility lies about 10-fold lower than the previous one.

The same series, now with this note: 22.0 °C.
For the molecule `CC(C)CO[N+](=O)[O-]`, the log10 OH rate constant (cm³/molecule/s) was -12.

The same series, now with this note: 23 °C.
Turning to `CC1=CCC(=C(C)C)CC1`, the solubility turned out to be 0.0697 mM (≈ 0.0095 mg/mL).

The same series, now with this note: 23.0 °C.
Turning to `O=C/C=C/c1ccccc1`, the log10 OH rate constant (cm³/molecule/s) is -10.3.

The same series, now with this note: 25 °C.
Molecule `CCC1CO1` (stereo unspecified) came in with a solubility of 1040 mM (≈ 75 mg/mL).

Regarding `O=Nc1ccc2ccccc2c1O`, the solubility was found to be 2.89 mM (≈ 0.5 mg/mL). Compared with the last molecule, the solubility is about 360-fold lower.

Take `O=c1n(Cl)c(=O)n(Cl)c(=O)n1Cl`: the solubility is 51.6 mM (≈ 12 mg/mL).

Turning to `Nc1ccn([C@H]2CC[C@@H](CO)O2)c(=O)n1`, the solubility is 362 mM (≈ 76.4 mg/mL).

Molecule `CC(C)CO[N+](=O)[O-]` returned a solubility of 11.2 mM (≈ 1.33 mg/mL). This solubility lies about 32-fold lower than the previous one.

The molecule `COc1c(Cl)ccc(Cl)c1C(=O)O` returned a solubility of 27.7 mM (≈ 6.12 mg/mL).

For the molecule `CCCCOC(=O)c1ccc(C(=O)OCCCC)cc1`, the solubility worked out at 0.00341 mM (≈ 0.00095 mg/mL).

`CCCCCCC(C)O` (racemic) returned a solubility of 9.2 mM (≈ 1.2 mg/mL).

In turn, `Cc1ccc(C)cc1` yielded a solubility of 1.53 mM (≈ 0.162 mg/mL). Compared with the last molecule, the solubility is about 6-fold lower.

For the molecule `CCCCCOC(=O)CC`, the solubility was 5.62 mM (≈ 0.81 mg/mL). Compared with the last molecule, the solubility is about 3.7-fold higher.

The molecule `CON(C)C(=O)Nc1ccc(Cl)c(Cl)c1` returned a solubility of 0.301 mM (≈ 0.075 mg/mL).

`CCCCCCCCCCCCN` registered a solubility of 0.421 mM (≈ 0.078 mg/mL).

For `O=C(O)CBr`, the solubility was 12600 mM (≈ 1750 mg/mL).

As to `O=[N+]([O-])c1ccc(N=Nc2ccc(O)cc2)cc1`, the solubility worked out at 0.016 mM (≈ 0.00389 mg/mL). That is a double-digit micromolar value.

`Brc1ccc(I)cc1`: the solubility turned out to be 0.0312 mM (≈ 0.00882 mg/mL).

Regarding `CCCCN(CC)C(=O)SCCC`, the solubility was determined as 0.492 mM (≈ 0.1 mg/mL).

`CC(C)CCO[N+](=O)[O-]`: the solubility amounted to 3.3 mM (≈ 0.44 mg/mL). Compared with the last molecule, the solubility is about 6.7-fold higher.

On to `N[C@@H]1[C@H]2CN(c3nc4c(cc3F)c(=O)c(C(=O)O)cn4-c3ccc(F)cc3F)C[C@@H]12`, for which the solubility was found to be 0.0295 mM (≈ 0.0123 mg/mL).

Regarding `ClC/C=C/CCl`, the solubility was determined as 5.27 mM (≈ 0.659 mg/mL).

Consider `CCCCCCCCOC(=O)COc1ccc(Cl)cc1Cl`, for which the solubility was 9.51e-05 mM (≈ 3.17e-05 mg/mL).

`CC(C)(C#N)/N=N/C(C)(C)C#N`: the solubility turned out to be 2.13 mM (≈ 0.35 mg/mL).

In the case of `O=C(O)CCC1CCCC1`, the solubility stood at 17 mM (≈ 2.42 mg/mL).

In turn, `OCC(CO)(CO)COCC(CO)(CO)CO` came in with a solubility of 11 mM (≈ 2.8 mg/mL).

Still in this series, the particulars now being: 25.0 °C.
Turning to `ClCCCCl`, the log10 OH rate constant (cm³/molecule/s) was -12.1.

For the molecule `C1CN2CCN1CC2`, the log10 OH rate constant (cm³/molecule/s) was -10.7.

Molecule `c1cc2ccc3cccc4ccc(c1)c2c34` gave a log10 OH rate constant (cm³/molecule/s) of -10.3.

As to `Cc1ccc(C(C)(C)C)cc1`, the log10 OH rate constant (cm³/molecule/s) is -10.9.

As to `c1cc2c3c(cccc3c1)CC2`, the log10 OH rate constant (cm³/molecule/s) was -10.2.

`FC1(F)OC(F)(F)C1(F)F` showed a log10 OH rate constant (cm³/molecule/s) of under -15.7.

`FC(F)(F)COCC(F)(F)F` displayed a log10 OH rate constant (cm³/molecule/s) of -12.8.

Take `CCC(C)(C)OC`: the log10 OH rate constant (cm³/molecule/s) was -11.3.

On to `COc1ccc([N+](=O)[O-])cc1`, for which the log10 OH rate constant (cm³/molecule/s) was -11.6.

As for `CCOCCOCC`, the log10 OH rate constant (cm³/molecule/s) is -10.2.

On to `CC1=CCC(=C(C)C)CC1`, for which the log10 OH rate constant (cm³/molecule/s) was -9.65.

For the molecule `FC(F)OC(F)(F)C(F)Cl` (stereo unspecified), the log10 OH rate constant (cm³/molecule/s) was -13.9.

`ClC(Cl)C(Cl)Cl`: the log10 OH rate constant (cm³/molecule/s) was -12.6.

`CCOS(=O)(=O)OCC` displayed a log10 OH rate constant (cm³/molecule/s) of -11.7.

In the case of `CNC(=O)OC`, the log10 OH rate constant (cm³/molecule/s) was -11.4.

The same series, now with this note: 27.0 °C.
`CC(=O)N(C)C` yielded a log10 OH rate constant (cm³/molecule/s) of -10.9.

With `O=C1C=CC(=O)C=C1`, the log10 OH rate constant (cm³/molecule/s) was -11.3.

In turn, `Cc1ccc(C)o1` gave a log10 OH rate constant (cm³/molecule/s) of -9.88.
